In patent US20110046224A1, “METHODS TO ACCELERATE MUSCLE DEVELOPMENT, DECREASE FAT DEPOSITS, AND ENHANCE FEEDING EFFICIENCY IN PIGS” (BIOKAB, S.A. de C.V., priority 2009, published 2011):

What was measured:
[1] = system: pigs for meat supply; experiment: Production characteristics of finishing pigs fed supplemented food (weight, weight gain, food intake, food conversion); format: in vivo, York-Landrace (YL) x Duroc (DC); details: supplemented pigs vs untreated control group
[2] = system: pigs for meat supply; experiment: as above; format: in vivo, York-Landrace (YL) x Duroc (DC); details: for FINAL WEIGHT / DAILY GAIN / WEIGHT GAIN / AVERAGE INTAKE / TOTAL INTAKE: mean and standard deviation; for AVERAGE INTAKE: daily average food intake; for CONVERSION: food conversion; for TOTAL INTAKE: food intake
Source text: (§1) 30 pigs were used, 15 castrated males and 15 females obtained from a terminal breeding York-Landrace (YL)×Duroc (DC); at the beginning of the study, said pigs weighted 77.83±1.20 Kg and were approximately 18 weeks old. Pigs were kept in individual pens, and were randomly distributed to 3 treatments, with ten repetitions per treatment. Treatments were: a positive control, including 5 ppm of commercial ractopamine; a second treatment including 12 ppm of pure ferulic acid and a third treatment containing 15 ppm of substantially pure ferulic acid per ton of food. Pigs were weighted every seven days, studying the following variables: initial weight, weekly weight, and final weight of the pigs; daily food intake. This was used to estimate the daily, weekly and term weight gain, as well as food efficiency. When reaching the approximate weight of 100 kg, animals were evaluated in vivo (using Piglot 105, SFK-Technology, Netherlands) in order to estimate the amount of body fat and lean efficiency. Results were evaluated randomly, using SAS general linear models procedures.

[3] = system: pigs for meat supply; experiment: Carcass quality of pigs fed supplemented food (body fat and lean efficiency estimated in vivo with Piglot 105); parameters: species or system York-Landrace (YL) x Duroc (DC); details: for Average fat / LEAN EFFICIENCY: at approx. 100 kg, mean and standard deviation
Source text: as §1

SMILES: CC(CCc1ccc(O)cc1)NCC(O)c1ccc(O)cc1 (stereo not shown) [Ractopamine, ractopamine, reference compound]
- intake of total food and daily average compared to the control group (untreated) [1]: lower intake
- FINAL WEIGHT ([2]; 5 ppm commercial ractopamine in food, start 77.33 Kg): 105.28 ± 4.98 kg
- DAILY GAIN ([2]; 5 ppm in food): 1.00 ± .08 kg
- WEIGHT GAIN ([2]; 5 ppm in food): 27.94 ± 3.20 kg
- AVERAGE INTAKE ([2]; 5 ppm in food): 2.35 ± .33 kg
- CONVERSION ([2]; 5 ppm in food): 2.32
- TOTAL INTAKE ([2]; 5 ppm in food): 82.33 ± 11.31 kg
- CARCASS EFFICIENCY ([3]; 5 ppm in food): 87.08%
- EFFICIENCY IN CUTS ([3]; 5 ppm in food): 51.69%
- Average fat ([3]; 5 ppm in food): 9.67 ± 1.11 mm
- LEAN EFFICIENCY ([3]; 5 ppm in food): 58.98 ± 2.20%

SMILES: COc1cc(/C=C/C(=O)O)ccc1O [Pure ferulic acid, trans-4-hydroxy-3-methoxy cinnamic acid]
- DAILY GAIN ([2]; 12 ppm in food): 0.873 ± .20 kg
- WEIGHT GAIN ([2]; 12 ppm in food): 24.45 ± 5.64 kg
- FINAL WEIGHT ([2]; 12 ppm pure ferulic acid in food, start 79.4 Kg): 103.85 ± 7.63 kg
- AVERAGE INTAKE ([2]; 12 ppm in food): 2.34 ± .40 kg
- CONVERSION ([2]; 12 ppm in food): 2.68
- TOTAL INTAKE ([2]; 12 ppm in food): 81.75 ± 14.00 kg
- CARCASS EFFICIENCY ([3]; 12 ppm in food): 88.01%
- EFFICIENCY IN CUTS ([3]; 12 ppm in food): 49.66%
- Average fat ([3]; 12 ppm in food): 13.5 ± 3.58 mm
- LEAN EFFICIENCY ([3]; 12 ppm in food): 56.24 ± 3.58%

SMILES: COc1cc(/C=C/C(=O)O)ccc1O [ferulic acid]
- intake of total food and daily average compared to the control group (untreated) [1]: lower intake
- amount of dorsal fat (in words) ([3]; pigs fed with 15 ppm): lower amount of dorsal fat
- lean efficiency (in words) ([3]; pigs fed with 15 ppm): better lean efficiency

SMILES: COc1cc(/C=C/C(=O)O)ccc1O [Substantially pure ferulic acid, trans-ferulic acid]
- DAILY GAIN ([2]; 15 ppm in food): 1.04 ± .20 kg
- WEIGHT GAIN ([2]; 15 ppm in food): 29.25 ± 5.70 kg
- FINAL WEIGHT ([2]; 15 ppm substantially pure ferulic acid in food, start 78.2 Kg): 107.47 ± 6.84 kg
- AVERAGE INTAKE ([2]; 15 ppm in food): 2.30 ± .26 kg
- CONVERSION ([2]; 15 ppm in food): 2.21
- TOTAL INTAKE ([2]; 15 ppm in food): 80.57 ± 8.13 kg
- CARCASS EFFICIENCY ([3]; 15 ppm in food): 89.26%
- EFFICIENCY IN CUTS ([3]; 15 ppm in food): 50.88%
- Average fat ([3]; 15 ppm in food): 9.60 ± .34 mm
- LEAN EFFICIENCY ([3]; 15 ppm in food): 59.66 ± 3.14%
